The text below walks through data of patent US5350677A, “Method of assaying phosphatase with 3,4-dinitrophenylphosphate” (Iatron Laboratories, Inc., priority 1989, dated 1994).

The conditions of series [1]: without solubilizing auxiliary agent; cited from earlier work.
Series [2] can be described thus: Stability (decomposition) of substrate in aqueous solution. Type of series: physicochemical.

Regarding `CC(=O)N[C@H]1[C@H](Oc2ccc([N+](=O)[O-])cc2Cl)O[C@H](CO)[C@@H](O)[C@@H]1O` [2-chloro-4-nitrophenyl-N-acetyl-β-D-glucosaminide], in series [1], the “solubility in water” value was “difficult to dissolve in water”. With `CC(=O)N[C@H]1[C@H](Oc2ccc([N+](=O)[O-])c([N+](=O)[O-])c2)O[C@H](CO)[C@@H](O)[C@@H]1O` [3,4-DNG, 3,4-dinitrophenyl-N-acetyl-β-D-glucosaminide], the decomposition ratio in series [2] (enzyme reaction conditions (pH 5, 37° C.) for one hour, 60 min) stood at 1.5%. Further, the “stability of aqueous solution” value in series [2] (under ice-cooling) is “stable”.
